Measurements published in article PMC12310023 (PLOS Neglected Tropical Diseases, 2025).
Like-named read-outs stand apart in the source and are kept apart here.

Tests used:
C. hominis TU502 isolate = assay: Calibr high-content imaging Cryptosporidium panel; assay type: cell-based, Cryptosporidium hominis; settings: Cryptosporidium hominis
PKD3 = PKD3 (Homo sapiens, UniProt O94806); assay: Kinome profiling; assay type: biochemical
[1] = Stability of M2 hemiaminal in buffer; assay type: physicochemical; settings: pH 6.8 phosphate buffer, ambient temperature
AT2 = molecular target: T1, AT2 (Homo sapiens, UniProt P50052); assay: Cerep binding assay
T1 construct: Cerep (Eurofins, France)
T1 sequence (P50052 whole entry): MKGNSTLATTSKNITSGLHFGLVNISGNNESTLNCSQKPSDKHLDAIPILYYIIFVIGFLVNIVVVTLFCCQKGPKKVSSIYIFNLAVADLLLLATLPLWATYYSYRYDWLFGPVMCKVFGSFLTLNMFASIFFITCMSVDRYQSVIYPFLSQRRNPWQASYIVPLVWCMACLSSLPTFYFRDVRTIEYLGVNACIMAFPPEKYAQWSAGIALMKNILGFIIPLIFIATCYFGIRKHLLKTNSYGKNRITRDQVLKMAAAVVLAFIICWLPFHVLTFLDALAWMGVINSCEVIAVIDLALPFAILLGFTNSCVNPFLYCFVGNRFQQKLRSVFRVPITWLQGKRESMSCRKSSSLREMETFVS

5-HT2B = molecular target: T2, 5-HT2B (Homo sapiens, UniProt P41595); assay: Cerep binding assay; settings: agonist radioligand, mean, read-out: % inhibition of control specific binding
T2 construct: Cerep (Eurofins, France)
T2 sequence (P41595 whole entry): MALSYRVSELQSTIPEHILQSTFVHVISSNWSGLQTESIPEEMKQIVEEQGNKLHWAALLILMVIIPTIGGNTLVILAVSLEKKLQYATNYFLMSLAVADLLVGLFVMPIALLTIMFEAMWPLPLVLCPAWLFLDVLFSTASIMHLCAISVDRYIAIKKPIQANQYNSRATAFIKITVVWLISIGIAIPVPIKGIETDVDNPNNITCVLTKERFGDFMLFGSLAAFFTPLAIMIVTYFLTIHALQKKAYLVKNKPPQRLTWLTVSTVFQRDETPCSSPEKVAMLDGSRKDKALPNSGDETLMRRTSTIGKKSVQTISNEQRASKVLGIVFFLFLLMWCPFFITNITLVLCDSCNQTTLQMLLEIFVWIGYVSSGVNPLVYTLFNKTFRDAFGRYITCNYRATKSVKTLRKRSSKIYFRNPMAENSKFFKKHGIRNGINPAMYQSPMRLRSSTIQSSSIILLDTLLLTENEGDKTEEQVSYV

Cl- channel (GABA-gated) = assay: Cerep binding assay
PPARУ = molecular target: T3, PPARУ (Homo sapiens, UniProt P37231); assay: Cerep cellular and nuclear receptor functional assay; assay type: cell-based
T3 construct: Cerep (Eurofins, France)
T3 sequence (P37231 1-505): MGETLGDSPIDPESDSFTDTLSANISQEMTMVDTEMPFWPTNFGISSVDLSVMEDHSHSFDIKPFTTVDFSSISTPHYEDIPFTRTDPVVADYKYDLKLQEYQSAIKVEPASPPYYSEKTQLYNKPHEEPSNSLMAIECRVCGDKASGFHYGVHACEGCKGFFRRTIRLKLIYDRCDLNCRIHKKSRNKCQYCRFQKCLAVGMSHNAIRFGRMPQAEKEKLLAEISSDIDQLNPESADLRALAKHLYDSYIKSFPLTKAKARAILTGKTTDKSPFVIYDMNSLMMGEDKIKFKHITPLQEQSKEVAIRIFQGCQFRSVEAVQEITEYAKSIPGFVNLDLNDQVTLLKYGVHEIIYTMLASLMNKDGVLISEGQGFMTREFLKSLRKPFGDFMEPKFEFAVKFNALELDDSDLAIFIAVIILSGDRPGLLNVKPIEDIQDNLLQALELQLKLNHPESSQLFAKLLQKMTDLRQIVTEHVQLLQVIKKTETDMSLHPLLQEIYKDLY

CYP1A2 [2] = molecular target: T4, CYP1A2 (Homo sapiens, UniProt P05177); assay: in vitro; settings: recombinant CYP1A2 supersomes
T4 sequence (P05177 1-516): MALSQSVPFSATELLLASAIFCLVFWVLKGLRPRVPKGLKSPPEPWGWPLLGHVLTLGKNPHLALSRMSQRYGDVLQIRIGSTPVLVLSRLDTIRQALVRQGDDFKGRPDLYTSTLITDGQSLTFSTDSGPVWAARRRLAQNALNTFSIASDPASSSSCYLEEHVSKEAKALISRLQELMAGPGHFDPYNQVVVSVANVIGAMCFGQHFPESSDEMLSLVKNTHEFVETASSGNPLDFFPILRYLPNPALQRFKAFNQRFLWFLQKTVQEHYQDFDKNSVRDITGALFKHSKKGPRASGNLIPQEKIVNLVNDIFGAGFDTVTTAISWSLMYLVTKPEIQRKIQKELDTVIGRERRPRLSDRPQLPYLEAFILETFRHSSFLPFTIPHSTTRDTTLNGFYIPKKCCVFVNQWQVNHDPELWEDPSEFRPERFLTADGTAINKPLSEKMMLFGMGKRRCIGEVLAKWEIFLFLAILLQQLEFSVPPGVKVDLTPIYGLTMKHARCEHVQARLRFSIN

CYP2C8 [3] = molecular target: T5, CYP2C8 (Homo sapiens, UniProt P10632); assay: in vitro; settings: recombinant CYP2C8 supersomes
T5 sequence (P10632 1-490): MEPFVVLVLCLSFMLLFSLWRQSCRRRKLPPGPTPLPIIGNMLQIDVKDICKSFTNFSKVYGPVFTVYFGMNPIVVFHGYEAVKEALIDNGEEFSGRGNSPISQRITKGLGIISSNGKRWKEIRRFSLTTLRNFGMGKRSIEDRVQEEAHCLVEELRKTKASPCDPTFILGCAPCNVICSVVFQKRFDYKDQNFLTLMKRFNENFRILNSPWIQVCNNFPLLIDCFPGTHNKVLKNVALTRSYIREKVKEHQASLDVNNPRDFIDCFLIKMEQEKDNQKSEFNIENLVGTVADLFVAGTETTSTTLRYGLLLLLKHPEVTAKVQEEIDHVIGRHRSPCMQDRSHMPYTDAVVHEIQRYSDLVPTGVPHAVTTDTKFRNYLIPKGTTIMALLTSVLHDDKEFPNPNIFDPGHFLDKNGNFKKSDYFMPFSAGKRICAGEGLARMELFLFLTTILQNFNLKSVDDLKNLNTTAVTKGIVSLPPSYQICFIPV

CYP1A2 [4] = molecular target: T4, CYP1A2; assay: biochemical
[5] = Liver microsome stability; settings: rat, pooled liver microsomes
zebrafish embryos = assay: Zebrafish developmental safety assay; settings: 4 days
CYP1A1 = assay: CYP Induction Assay in dog hepatocytes; settings: 30 and 100 μM, 48 h
CYP1A2 [6] = assay: CYP Induction Assay in dog hepatocytes; settings: 30 and 100 μM, 48 h
[7] = Plasma protein binding, equilibrium dialysis; settings: dog
[8] = Plasma protein binding, equilibrium dialysis; settings: bovine
[9] = Plasma levels in IFNγ-KO mouse efficacy model
CYP1A2 [10] = molecular target: T4, CYP1A2; assay: CYP reaction phenotyping, recombinant supersomes
CYP2C8 [11] = molecular target: T5, CYP2C8; assay: CYP reaction phenotyping, recombinant supersomes
CYP2C9 = CYP2C9 (Homo sapiens, UniProt P11712); assay: CYP reaction phenotyping, recombinant supersomes
Sequence of CYP2C9 (P11712 whole entry): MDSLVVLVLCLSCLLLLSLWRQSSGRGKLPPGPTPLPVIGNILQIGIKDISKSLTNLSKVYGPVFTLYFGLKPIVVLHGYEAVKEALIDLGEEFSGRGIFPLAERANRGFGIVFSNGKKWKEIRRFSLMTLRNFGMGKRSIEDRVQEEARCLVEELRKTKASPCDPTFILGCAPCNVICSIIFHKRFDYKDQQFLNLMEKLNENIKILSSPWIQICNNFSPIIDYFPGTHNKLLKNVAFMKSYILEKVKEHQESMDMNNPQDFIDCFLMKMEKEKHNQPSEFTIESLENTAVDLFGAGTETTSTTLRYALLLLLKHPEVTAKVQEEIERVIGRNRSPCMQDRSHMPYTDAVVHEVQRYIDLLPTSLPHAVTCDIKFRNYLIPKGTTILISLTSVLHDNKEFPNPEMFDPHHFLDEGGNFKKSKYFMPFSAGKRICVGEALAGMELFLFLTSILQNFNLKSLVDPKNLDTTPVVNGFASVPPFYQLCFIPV

Sequence of PKD3 (O94806 whole entry): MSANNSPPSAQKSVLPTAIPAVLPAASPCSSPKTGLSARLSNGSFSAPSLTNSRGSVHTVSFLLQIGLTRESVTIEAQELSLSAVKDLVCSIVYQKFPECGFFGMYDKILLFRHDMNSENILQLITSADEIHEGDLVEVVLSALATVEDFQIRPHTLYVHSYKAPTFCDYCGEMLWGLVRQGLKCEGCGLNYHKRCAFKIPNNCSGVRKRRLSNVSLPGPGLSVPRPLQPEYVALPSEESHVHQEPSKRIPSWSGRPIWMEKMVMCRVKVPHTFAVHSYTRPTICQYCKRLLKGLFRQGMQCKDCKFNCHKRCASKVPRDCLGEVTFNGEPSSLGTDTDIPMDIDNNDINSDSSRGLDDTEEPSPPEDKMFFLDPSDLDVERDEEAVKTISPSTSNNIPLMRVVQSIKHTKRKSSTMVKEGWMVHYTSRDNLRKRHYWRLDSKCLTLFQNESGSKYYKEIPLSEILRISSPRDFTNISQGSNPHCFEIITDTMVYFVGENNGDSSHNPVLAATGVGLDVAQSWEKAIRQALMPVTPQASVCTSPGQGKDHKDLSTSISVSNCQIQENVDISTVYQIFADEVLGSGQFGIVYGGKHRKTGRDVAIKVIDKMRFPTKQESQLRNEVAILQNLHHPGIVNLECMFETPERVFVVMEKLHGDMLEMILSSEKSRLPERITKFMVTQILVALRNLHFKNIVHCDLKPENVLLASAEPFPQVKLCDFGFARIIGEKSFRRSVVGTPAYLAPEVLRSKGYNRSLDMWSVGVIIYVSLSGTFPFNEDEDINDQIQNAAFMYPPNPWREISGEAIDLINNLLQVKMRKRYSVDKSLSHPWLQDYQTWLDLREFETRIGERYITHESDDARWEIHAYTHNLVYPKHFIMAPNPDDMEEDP

For `CC1(C)Cn2nc(-c3ccc4cc(OC5CC5)ccc4c3)c(C(N)=O)c2NC1O` (stereo not shown) [M2], the EC50 (C. hominis TU502 isolate) was 0.44 µM, the EC90 (C. hominis TU502 isolate) was 1.67 µM and the EC50 (C. hominis TU502 isolate; read-out: TU502 C. hominis Count EC50, Replicate 1) was 0.458 µM. It also gave an EC50 (C. hominis TU502 isolate; read-out: TU502 C. hominis Count EC50, Replicate 2) of 0.428 µM, an EC90 (C. hominis TU502 isolate; read-out: TU502 C. hominis Count EC90, Replicate 1) of 1.93 µM and an EC90 (C. hominis TU502 isolate; read-out: TU502 C. hominis Count EC90, Replicate 2) of 1.41 µM. The IC50 (PKD3) was 0.23 µM, the time hemiaminal stable [1] was “up to 24 h” and the IC50 (AT2) was 4.6 µM. It also gave an inhibition at 10 µM (AT2; 10 μM, agonist radioligand, mean, read-out: % inhibition of control specific binding) of 50.7%, an inhibition at 10 µM (5-HT2B) of 57.1% and an IC50 (Cl- channel (GABA-gated)) of 17 µM. For the same compound, the “% inhibition of control specific binding” value (Cl- channel (GABA-gated); 10 μM, antagonist radioligand, mean) was 50.6%, the agonist effect (PPARУ) was “no effect up to 100 μM” and the IC50 (PPARУ; read-out: IC50, antagonist effect) was over 100 µM. For the same compound, the CLint scaled (CYP1A2 [2]) was 2.78 mL/min/kg, the half-life (CYP1A2 [2]) was 1 h and the CLint scaled (CYP2C8 [3]) was under 1.78 mL/min/kg. It also gave a half-life (CYP2C8 [3]) of over 4 h, an IC50 (CYP1A2 [4]) of over 40 µM and a CLint scaled [5] of under 41.7 mL/min/kg. The half-life [5] was over 2 h, the microsomal CLint [5] was under 23.1 µL/min/mg and the “concentration up to which zebrafish embryo development was not affected” value (zebrafish embryos) was 20 µM. For the same compound, the “induction of CYP1A1” value (CYP1A1) was “strong inducers”, the “induction of CYP1A2” value (CYP1A2 [6]) was “strong inducers” and the fraction unbound [7] was 0.1. The fraction unbound [8] was 0.05, the peak plasma exposure ([9]; M2 8 mg/kg x 3 days) was 3.0 ± 1.0 µM and the peak plasma level ([9]; M2 15 mg/kg x 3 days) was 6.8 ± 1.2 µM. For the same compound, the peak plasma level ([9]; M2 30 mg/kg x 3 days) was 7.7 ± 3.6 µM, the “% contribution” value (CYP1A2 [10]) was 47.0% and the CLint (CYP1A2 [10]) was 0.115 µL/min/pmol. For the same compound, the “% contribution” value (CYP2C8 [11]) was 0.0%, the CLint (CYP2C8 [11]) was under 0.029 µL/min/pmol and the “% contribution” value (CYP2C9) was 0.0%. For the same compound, the CLint (CYP2C9) was under 0.029 µL/min/pmol.
